Read-outs that look alike come from different tables or passages of the source.
Key:
[1] = biological target: T1, Rat DNA polymerase β (Rattus norvegicus, UniProt P06766); assay: DNA polymerase assay, rat pol β; type: biochemical; conditions: 10 and 100 μM of compound (Figure 2B)
T1 construct: made in house; host or cells: E. coli JMpβ5
From the text: (§1) Pol α was purified from calf thymus by immuno-affinity column chromatography as described by Tamai et al.. Recombinant rat pol β was purified from E. coli JMpβ5 as described by Date et al.. The human pol γ catalytic gene was cloned into pFastBac. Histidine-tagged enzyme was expressed using the BAC-TO-BAC HT Baculovirus Expression System according to the supplier's manual (LIFE TECHNOLOGIES, MD, USA) and purified using ProBoundresin (Invitrogen Japan, Tokyo, Japan). Human pols δ and ε were purified by the nuclear fractionation of human peripheral blood cancer cells (Molt-4) using the second subunit of pols δ and ε-conjugated affinity column chromatography, respectively. Recombinant human pols η and ι tagged with His6 at their C-terminal were expressed in SF9 insect cells using the baculovirus expression system, and were purified as described previously. A truncated form of pol κ (i.e., hDINB1DC) with 6 x His-tags attached at the C-terminal was overproduced using the BAC-to-BAC Baculovirus Expression System kit (GIBCO BRL, MD, USA) and purified as described previously. Recombinant human His-pol λ was overexpressed and purified according to a method described previously. Fish pol δ was purified from the testis of cherry salmon (Oncorhynchus masou). Pol I (α-like) from a higher plant, cauliflower inflorescence, was purified according to the methods outlined by Sakaguchi et al.. The Klenow fragment of pol I from E. coli was purchased from Worthington Biochemical Corp. (Freehold, NJ, USA). Taq pol, T4 pol, T7 RNA polymerase and T4 polynucleotide kinase were purchased from Takara (Kyoto, Japan). Bovine pancreas deoxyribonuclease I (DNase I) was obtained from Stratagene Cloning Systems (La Jolla, CA, USA).
(§2) The reaction mixtures for pol α, pol β, fish pol δ, plant pol I (α-like) and prokaryotic pols were described previously, and those for pol γ, and pols δ and ε were as described by Umeda et al. and Ogawa et al., respectively. The reaction mixtures for pols η, ι and κ were the same as for pol α, and the reaction mixture for pol λ was the same as that for pol β.
For pols, poly(dA)/oligo(dT)12-18 (A/T = 2/1) and dTTP were used as the DNA template-primer and nucleotide (i.e., dNTP) substrate, respectively. KA-A analogues (i.e., compounds 1–12) were dissolved in distilled dimethyl sulfoxide (DMSO) at various concentrations and sonicated for 30 sec. Aliquots of 4 μL of sonicated samples were mixed with 16 μL of each enzyme (final amount 0.05 units) in 50 mM Tris-HCl (pH 7.5) containing 1 mM dithiothreitol, 50% glycerol and 0.1 mM EDTA, and kept at 0 °C for 10 min. These inhibitor-enzyme mixtures (8 μl) were added to 16 μL of each of the enzyme standard reaction mixtures, and incubation was carried out at 37 °C for 60 min, except for Taq pol, which was incubated at 74 °C for 60 min. Activity without the inhibitor was considered 100%, and the remaining activity at each concentration of the inhibitor was determined relative to this value. One unit of pol activity was defined as the amount of enzyme that catalyzed the incorporation of 1 nmol of dNTP (i.e., dTTP) into synthetic DNA template-primers in 60 min at 37 °C under the normal reaction conditions for each enzyme.

[2] = biological target: T2, Calf DNA polymerase α (Bos taurus, UniProt A0AAA9THK8); assay: DNA polymerase assay, calf pol α; type: biochemical
From the text: as §1, §2
For pols, poly(dA)/oligo(dT)12-18 (A/T = 2/1) and dTTP were used as the DNA template-primer and nucleotide (i.e., dNTP) substrate, respectively. KA-A analogues (i.e., compounds 1–12) were dissolved in distilled dimethyl sulfoxide (DMSO) at various concentrations and sonicated for 30 sec. Aliquots of 4 μL of sonicated samples were mixed with 16 μL of each enzyme (final amount 0.05 units) in 50 mM Tris-HCl (pH 7.5) containing 1 mM dithiothreitol, 50% glycerol and 0.1 mM EDTA, and kept at 0 °C for 10 min. […] Activity without the inhibitor was considered 100%, and the remaining activity at each concentration of the inhibitor was determined relative to this value. […]

[3] = system: HL-60 cells; assay: HL-60 cancer cell growth, MTT assay; type: cell-based, human; conditions: 50 μM, 24 hr
Method: To investigate the effects of KA-A derivatives in cultured cells, we used a human cancer cell line, HL-60, human promyelocytic leukemia cells (IFO 050022), supplied by the Health Science Research Resources Bank (Osaka, Japan). The cells were routinely cultured in RPMI 1640 medium supplemented with 10% fetal bovine serum, 100 μg/mL streptomycin, 100 unit/mL penicillin, and 1.6 mg/mL NaHCO3. The cells were cultured at 37 °C in standard medium in a humidified atmosphere of 5% CO2-95% air. The rate of the cancer cell growth of the compound was investigated as follows: high concentrations (10 mM) of the compounds were dissolved in DMSO and stocked. Approximately 1 x 10^4 cells per well were inoculated in 96-well micro plates, and then the compound stock solution was diluted to various concentrations, and applied to each well. After incubation for 24 hr, the survival rate was determined by MTT (3-(4,5-dimethylthiazol-2-yl)-2,5-diphenyl tetrazolium bromide) assay.

[4] = biological target: T2, Calf DNA polymerase α; design: method as in PMID 12758147; conditions: reported previously; read-out: IC50 value, pol α; cited from earlier work
[5] = biological target: T1, Rat DNA polymerase β; design: method as in PMID 12758147; conditions: reported previously; read-out: IC50 value, pol β; cited from earlier work
[6] = system: double-stranded DNA (dsDNA); assay: Thermal transition (Tm) of double-stranded DNA; type: binding; conditions: compound 11 at 200 μM; data not shown
Method: The Tm of dsDNA with an excess amount of compound 11 (200 μM) was measured using a spectrophotometer equipped with a thermoelectric cell holder.

T2 sequence (Q58D13 whole entry): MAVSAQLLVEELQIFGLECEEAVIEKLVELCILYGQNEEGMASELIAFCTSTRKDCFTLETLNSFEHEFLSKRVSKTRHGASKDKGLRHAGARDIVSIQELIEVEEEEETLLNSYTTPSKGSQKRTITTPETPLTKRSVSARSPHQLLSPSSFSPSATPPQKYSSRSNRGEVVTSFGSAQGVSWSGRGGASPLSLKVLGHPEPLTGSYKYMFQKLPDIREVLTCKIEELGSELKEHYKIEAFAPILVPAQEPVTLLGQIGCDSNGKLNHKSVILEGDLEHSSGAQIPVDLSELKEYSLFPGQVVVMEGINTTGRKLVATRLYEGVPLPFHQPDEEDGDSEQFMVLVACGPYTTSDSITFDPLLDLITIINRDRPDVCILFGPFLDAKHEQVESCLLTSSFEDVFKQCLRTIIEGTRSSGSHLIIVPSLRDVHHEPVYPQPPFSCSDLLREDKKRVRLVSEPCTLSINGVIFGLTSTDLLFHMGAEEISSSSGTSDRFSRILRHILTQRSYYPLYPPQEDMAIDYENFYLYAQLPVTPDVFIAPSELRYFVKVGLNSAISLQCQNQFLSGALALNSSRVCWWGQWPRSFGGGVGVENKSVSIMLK
T2 sequence (A0AAA9THK8 entry or part of it): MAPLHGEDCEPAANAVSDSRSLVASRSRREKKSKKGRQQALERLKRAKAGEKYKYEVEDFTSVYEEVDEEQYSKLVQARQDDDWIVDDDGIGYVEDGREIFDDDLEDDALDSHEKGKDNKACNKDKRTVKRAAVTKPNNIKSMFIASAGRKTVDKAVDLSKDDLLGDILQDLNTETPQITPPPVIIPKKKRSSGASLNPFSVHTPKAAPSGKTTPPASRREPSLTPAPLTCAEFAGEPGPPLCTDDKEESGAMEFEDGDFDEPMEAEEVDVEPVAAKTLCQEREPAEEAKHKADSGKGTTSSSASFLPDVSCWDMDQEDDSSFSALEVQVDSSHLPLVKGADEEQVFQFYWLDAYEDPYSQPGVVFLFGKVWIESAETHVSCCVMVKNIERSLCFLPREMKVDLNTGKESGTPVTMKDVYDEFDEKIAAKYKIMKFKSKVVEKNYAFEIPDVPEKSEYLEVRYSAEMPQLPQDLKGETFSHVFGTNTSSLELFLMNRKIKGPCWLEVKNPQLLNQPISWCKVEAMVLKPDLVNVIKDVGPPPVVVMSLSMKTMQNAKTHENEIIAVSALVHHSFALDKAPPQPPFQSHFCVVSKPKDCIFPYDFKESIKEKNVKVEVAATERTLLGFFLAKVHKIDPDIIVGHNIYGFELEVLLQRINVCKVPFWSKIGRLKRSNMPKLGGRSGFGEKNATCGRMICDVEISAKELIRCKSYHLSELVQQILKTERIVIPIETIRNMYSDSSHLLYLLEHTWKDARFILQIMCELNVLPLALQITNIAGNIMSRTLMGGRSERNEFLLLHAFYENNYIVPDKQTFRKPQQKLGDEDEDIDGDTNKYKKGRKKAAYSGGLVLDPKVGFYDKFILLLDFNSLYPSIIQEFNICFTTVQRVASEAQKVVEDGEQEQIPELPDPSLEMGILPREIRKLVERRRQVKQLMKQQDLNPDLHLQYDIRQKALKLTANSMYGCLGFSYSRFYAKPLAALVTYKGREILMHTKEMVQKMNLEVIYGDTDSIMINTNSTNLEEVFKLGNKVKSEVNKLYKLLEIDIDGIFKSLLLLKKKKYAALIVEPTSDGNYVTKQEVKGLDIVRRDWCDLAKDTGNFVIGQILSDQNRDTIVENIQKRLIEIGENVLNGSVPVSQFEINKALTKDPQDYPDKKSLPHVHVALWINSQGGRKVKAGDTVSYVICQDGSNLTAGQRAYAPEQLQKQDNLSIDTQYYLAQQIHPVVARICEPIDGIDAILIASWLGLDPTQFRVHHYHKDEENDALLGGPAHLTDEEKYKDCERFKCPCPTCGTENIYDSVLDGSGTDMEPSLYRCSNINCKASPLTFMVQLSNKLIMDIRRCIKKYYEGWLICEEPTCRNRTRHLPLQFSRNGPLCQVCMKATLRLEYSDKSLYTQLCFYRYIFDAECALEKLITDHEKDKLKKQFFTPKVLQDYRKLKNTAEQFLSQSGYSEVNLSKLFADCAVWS
T2 sequence (A0JNF4 entry or part of it, further chain): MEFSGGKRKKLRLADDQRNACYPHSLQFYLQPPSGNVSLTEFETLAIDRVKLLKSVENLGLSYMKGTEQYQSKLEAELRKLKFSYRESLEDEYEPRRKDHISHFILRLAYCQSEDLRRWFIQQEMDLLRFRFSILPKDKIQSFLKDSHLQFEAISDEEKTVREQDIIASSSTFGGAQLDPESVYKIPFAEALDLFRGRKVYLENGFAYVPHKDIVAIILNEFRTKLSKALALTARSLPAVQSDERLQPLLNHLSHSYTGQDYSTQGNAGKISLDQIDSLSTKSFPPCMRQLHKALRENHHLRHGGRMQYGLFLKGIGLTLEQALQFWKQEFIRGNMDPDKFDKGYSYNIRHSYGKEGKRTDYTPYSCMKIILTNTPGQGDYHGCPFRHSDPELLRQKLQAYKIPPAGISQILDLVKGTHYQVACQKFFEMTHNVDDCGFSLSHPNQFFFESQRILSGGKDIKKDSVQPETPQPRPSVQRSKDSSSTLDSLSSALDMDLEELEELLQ
T2 sequence (A0A3Q1MF00 entry or part of it, further chain): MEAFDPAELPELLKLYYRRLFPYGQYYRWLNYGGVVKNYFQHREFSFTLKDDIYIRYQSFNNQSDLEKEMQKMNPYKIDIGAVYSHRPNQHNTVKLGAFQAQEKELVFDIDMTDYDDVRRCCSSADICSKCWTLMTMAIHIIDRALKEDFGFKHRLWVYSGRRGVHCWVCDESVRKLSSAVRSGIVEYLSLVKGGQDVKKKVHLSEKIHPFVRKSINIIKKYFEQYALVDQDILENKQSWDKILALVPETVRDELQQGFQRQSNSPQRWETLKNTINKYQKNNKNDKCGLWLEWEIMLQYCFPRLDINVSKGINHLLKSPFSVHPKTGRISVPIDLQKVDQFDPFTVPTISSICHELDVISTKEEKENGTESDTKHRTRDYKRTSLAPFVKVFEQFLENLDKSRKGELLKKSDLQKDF

With `CC1=CC[C@H]2C(C)(C)CCC[C@]2(C)[C@H]1CCCCCCCCC(=O)O` (relative stereo) [compound 9, (1S*,4aS*,8aS*)-9-(1,4,4a,5,6,7,8,8a-octahydro-2,5,5,8a-tetramethylnaphthalen-1-yl)nonanoic acid] the “Inhibitory effect on pol β compared with KA-A” value [1] was “as strong as that of KA-A” and the “Inhibitory effect on pol α compared with KA-A” value ([2]; 10 and 100 μM of compound (Figure 2A)) was “as strong as that of KA-A”.

For `C[C@@]1(CO)[C@H](O)CC[C@@]2(C)[C@H]1CC[C@H]1C[C@@H]3C[C@@]12CC[C@]3(O)CO` [aphidicolin, reference compound], the IC50 [2] was 40 µM.

For `CC1=CC[C@H]2C(C)(C)CCC[C@]2(C)[C@H]1CCCCCCCCCCCCCCCCCCCCC(=O)O` (relative stereo) [compound 12, (1S*,4aS*,8aS*)-21-(1,4,4a,5,6,7,8,8a-octahydro-2,5,5,8a-tetramethylnaphthalen-1-yl)henicosanoic acid], the “Growth inhibitory effect on HL-60 cells, rank among compounds tested” value [3] was “second”.

In the case of `CC(C)=CCC[C@@]1(C)CCC[C@]2(C)[C@@H](CC/C(C)=C/C(=O)O)C(C)=CC[C@@H]12` [compound 1, kohamaic acid A], the IC50 [4] is listed as 7.6 µM and the IC50 [5] is listed as 8.4 µM.

With `CC1=CC[C@H]2C(C)(C)CCC[C@]2(C)[C@H]1CCCCCCCCCCCCC(=O)O` (relative stereo) [compound 10, (1S*,4aS*,8aS*)-13-(1,4,4a,5,6,7,8,8a-octahydro-2,5,5,8a-tetramethylnaphthalen-1-yl)tridecanoic acid] the “Growth inhibitory effect on HL-60 cells, rank among compounds tested” value [3] was “third strongest”.

In the case of `CC[n+]1c(-c2ccccc2)c2cc(N)ccc2c2ccc(N)cc21` [ethidium bromide, reference compound], the “Thermal transition of Tm of dsDNA” value [6] is reported as “clear thermal transition”.

From publication PMC6253949, “The Inhibitory Action of Kohamaic Acid A Derivatives on Mammalian DNA Polymerase β” (Molecules, 2008)
